Holding throughout (format): in vivo
The test system of series [1] is Matricaria inodora, Papaver rhoeas, Stellaria media and Viola tricolor. Briefly: Pre-emergence herbicidal action, greenhouse. The following applies: pre-emergence method, application rate of 0.08 kg or less of active substance per hectare, scored after 3 to 4 weeks. An excerpt: Seeds or rhizome pieces of mono- and dicotyledonous weeds were placed in sandy loam in cardboard pots and covered with soil. The compounds according to the invention, formulated in the form of wettable powders or emulsion concentrates, were then applied to the surface of the covering soil in the form of aqueous suspensions or emulsions at an application rate of 100 to 800 l of water/ha (converted), at various dosages.
After the treatment, the pots were placed in a greenhouse and kept under good growth conditions for the weeds. The visual scoring of the damage to the plants or the emergence damage was carried out after the emergence of the test plants after a test period of 3 to 4 weeks, by comparison with untreated controls. As shown by the results, the compounds according to the invention have good herbicidal pre-emergence activity against a broad spectrum of weed grasses and broad-leaved weeds.

The test system of series [2] is Amaranthus retroflexus, Lolium multiflorum, Abuthilon theophrasti, Matricaria inodora, Ipomoea purpurea, Panicum minor, Stellaria media, Solanum nigrum …. Briefly: Post-emergence herbicidal action, greenhouse. The following applies: post-emergence method, application rate of 0.08 kg or less of active substance per hectare, scored after about 10 to 28 days. The protocol: Seeds or rhizome pieces of monocotyledonous and dicotyledonous weeds were placed in sandy loam in plastic pots, covered with soil and cultivated in a greenhouse under good growth conditions. Three weeks after sowing, the test plants were treated at the three-leaf stage. The compounds according to the invention, formulated as wettable powders or as emulsion concentrates, were sprayed onto the green parts of the plants at various dosages using a water application rate of from 100 to 800 l/ha (converted).

The test system of a further series is Panicum minor. Briefly: Post-emergence herbicidal action, field trial (Table A-1). The settings on record: 20 g of ai/ha (acid equivalent for salts), 3-5-leaf stage, 25 days after application, 0%=no control, 100%=complete control. The source says:
(§1) In a direct comparison, under field trial conditions (time of application 3-5-leaf stage of the weeds examined), the activities of the weed control of the free acid “2-iodo-N-[(4-methoxy-6-methyl-1,3,5-triazin-2-yl)carbamoyl]benzenesulfonamide” known from DE 27 15 786 were compared to individual salts according to the invention of 2-iodo-N-[(4-methoxy-6-methyl-1,3,5-triazin-2-yl)carbamoyl]benzenesulfonamide (compound I-3 (potassium salt of 2-iodo-N-[(4-methoxy-6-methyl-1,3,5-triazin-2-yl)carbamoyl]benzenesulfonamide) and 1-4 (magnesium salt of 2-iodo-N-[(4-methoxy-6-methyl-1,3,5-triazin-2-yl)carbamoyl]benzenesulfonamide)), evaluation being carried out 25 days after application. With respect to the activity, both a representative of a monocotyledonous weed (Panicum minor) and a representative of a dicotyledonous weed (Solanum nigrum) were scored according to the scheme below:
(§2) 0%=no control 100%=complete control

A further series deals with Solanum nigrum. The description is as above. The following applies: 20 g of ai/ha (acid equivalent for salts), 3-5-leaf stage, 25 days after application, 0%=no control, 100%=complete control.
Description: as §1, §2

Another series has as its system Chenopodium album. Briefly: Post-emergence herbicidal action, outdoor trial (Table A-2). The settings on record: 2-4-leaf stage, 28 days after application.
Description: (§3) In a further direct comparison, under outdoor trial conditions (time of application 2-4-leaf stage of the weeds examined), the activities of the weed control of the free acid “2-iodo-N-[(4-methoxy-6-methyl-1,3,5-triazin-2-yl)carbamoyl]benzene-sulfonamide” known from DE 27 15 786 were compared to the inventive Na^+ salt of 2-iodo-N-[(4-methoxy-6-methyl-1,3,5-triazin-2-yl)carbamoyl]benzenesulfonamide (compounds I-2 according to the invention) at various application rates, evaluation being carried out 28 days after application. With respect to the activity, the weeds Chenopodium album, Fagopyran repens and Pennisetum glauca were scored according to the scheme below:
as §2

For the next series, the system named is Fagopyran repens. The series is described as above. The settings on record: 2-4-leaf stage, 28 days after application.
Description: as §3, §2

In another series the test system is Pennisetum glauca. Described as above. The settings on record: 30 g of ai/ha (acid equivalent for salt), 2-4-leaf stage, 28 days after application.
Description: as §3, §2

A further series concerns broad bean (Vicia faba). Briefly: Replanting behavior, crop sown in treated soil. The following applies: scored after four weeks. As to the method: (§4) In further tests, various dosages of the test substances were worked into the soil. Subsequently, various crop plants were sown in plastic pots filled with the treated soil and cultivated in a greenhouse using a day/night rhythm of 22° C./14° C. After four weeks, the plants were scored according to the scheme below.
(§5) 0%=no damage 100%=complete damage

In series [3] the test system is oilseed rape (Brassica napus). Briefly: Replanting behavior, crop sown in treated soil. The following applies: scored after four weeks. As to the method: as §4, §5
The next series concerns sugar beet. Briefly: Replanting behavior, crop sown in treated soil. The following applies: scored after four weeks. As to the method:
as §4, §5

[4] abbreviates: 15 g of ai/ha (acid equivalent for salt).
Where [5] appears, read: 30 g of ai/ha (acid equivalent for salt).
The mark [6] stands for this setting: 0.1 g of ai/ha worked into the soil.
[7] abbreviates: 0.5 g of ai/ha worked into the soil.
Setting [8] is: 1.9 g of ai/ha worked into the soil.
Where [9] appears, read: 7.5 g of ai/ha worked into the soil.
The mark [10] stands for this setting: 30 g of ai/ha worked into the soil, 0%=no damage, 100%=complete damage.

In the case of “2-Iodo-N-[(4-methoxy-6-methyl-1,3,5-triazin-2-yl)carbamoyl]benzenesulfonamide tetrabutylammonium salt [Compound I-18]”, the “herbicidal activity, pre-emergence (visual scoring)” value (from here on “herbicidal activity, pre-emergence”) in series [1] was “very good herbicidal activity”. The “herbicidal activity, post-emergence (visual scoring)” value (“herbicidal activity, post-emergence” for short) in [2] was “very good herbicidal activity”.
As to “2-Iodo-N-[(4-methoxy-6-methyl-1,3,5-triazin-2-yl)carbamoyl]benzenesulfonamide tetraethylammonium salt [Compound I-12]”, the “herbicidal activity, pre-emergence” value in series [1] is on record as “very good herbicidal activity”. The “herbicidal activity, post-emergence” value in series [2] is reported as “very good herbicidal activity”.
On to `COc1nc(C)nc(NC(=O)NS(=O)(=O)c2ccccc2I)n1` [2-Iodo-N-[(4-methoxy-6-methyl-1,3,5-triazin-2-yl)carbamoyl]benzenesulfonamide, reference compound], for which, in the series on Panicum minor, the “Panicum minor control in %” value is given as 0%. Further, in the series with Solanum nigrum, the “Solanum nigrum control in %” value was found to be 70%. Besides, the results for the “Chenopodium album Control in %” value with Chenopodium album (setting [4]) and in the series with Chenopodium album (setting [5]) were 90% and 98%, respectively. Moreover, the “Fagopyran repens Control in %” value came to 25% in the series on Fagopyran repens (setting [4]) and 40% in the series with Fagopyran repens (setting [5]). In addition, the “Pennisetum glauca Control in %” value in the series with Pennisetum glauca is reported as 80%.
`COc1nc(C)nc(NC(=O)NS(=O)(=O)c2ccccc2I)n1.[Li]` [Compound I-1, 2-Iodo-N-[(4-methoxy-6-methyl-1,3,5-triazin-2-yl)carbamoyl]benzenesulfonamide lithium salt]: the “herbicidal activity, pre-emergence” value in series [1] was “very good herbicidal activity”. In series [2], the “herbicidal activity, post-emergence” value is listed as “very good herbicidal activity”.
On to `COc1nc(C)nc(NC(=O)NS(=O)(=O)c2ccccc2I)n1.[Na]` [Compound I-2, 2-Iodo-N-[(4-methoxy-6-methyl-1,3,5-triazin-2-yl)carbamoyl]benzenesulfonamide sodium salt], for which the “herbicidal activity, pre-emergence” value in [1] is given as “very good herbicidal activity”. The “herbicidal activity, post-emergence” value in series [2] is “very good herbicidal activity”. Moreover, the “Chenopodium album Control in %” value in the series on Chenopodium album (setting [4]) was found to be 93%; in the series with Chenopodium album (setting [5]) it was 100%. The entries for the “Fagopyran repens Control in %” value in the series on Fagopyran repens (setting [4]) and in the series on Fagopyran repens (setting [5]) were 30% and 45%, respectively. The “Pennisetum glauca Control in %” value in the series with Pennisetum glauca stood at 85%. The “Vicia faba damage in %” value is 2.5% in the series on broad bean (Vicia faba) (setting [6]); 2.5% with broad bean (Vicia faba) (setting [7]); 2.5% in the series with broad bean (Vicia faba) (setting [8]); 49% with broad bean (Vicia faba) (setting [9]); 93% in the series on broad bean (Vicia faba) (setting [10]). In addition, the “Brassica napus damage in %” value in [3] (setting [6]) is given as 0%; in series [3] (setting [7]), 1%; in series [3] (setting [8]), 29%; in [3] (setting [9]) it was 83%; in series [3] (setting [10]) it was 94%. Also, the “Sugar beet damage in %” value in the series with sugar beet (setting [6]) was found to be 0%; in the series on sugar beet (setting [7]) it was 1%; in the series on sugar beet (setting [8]), 61%; with sugar beet (setting [9]), 85%; in the series on sugar beet (setting [10]) it was 92%.
For `COc1nc(C)nc(NC(=O)NS(=O)(=O)c2ccccc2I)n1.[K]` [Compound I-3, 2-Iodo-N-[(4-methoxy-6-methyl-1,3,5-triazin-2-yl)carbamoyl]benzenesulfonamide potassium salt], in series [1], the “herbicidal activity, pre-emergence” value is listed as “very good herbicidal activity”. Further, the “herbicidal activity, post-emergence” value in series [2] is “very good herbicidal activity”. In the series with Panicum minor, the “Panicum minor control in %” value is on record as 30%. In addition, the “Solanum nigrum control in %” value in the series on Solanum nigrum was 84%.
For `COc1nc(C)nc(NC(=O)NS(=O)(=O)c2ccccc2I)n1.[Mg]` [Compound I-4, 2-Iodo-N-[(4-methoxy-6-methyl-1,3,5-triazin-2-yl)carbamoyl]benzenesulfonamide magnesium salt], the “herbicidal activity, pre-emergence” value in series [1] is given as “very good herbicidal activity”. Further, the “herbicidal activity, post-emergence” value in [2] was “very good herbicidal activity”. Also, the “Panicum minor control in %” value in the series on Panicum minor was determined as 48%. Moreover, in the series on Solanum nigrum, the “Solanum nigrum control in %” value was determined as 85%.
Take `COc1nc(C)nc(NC(=O)NS(=O)(=O)c2ccccc2I)n1.NCCO` [Compound I-19, 2-Iodo-N-[(4-methoxy-6-methyl-1,3,5-triazin-2-yl)carbamoyl]benzenesulfonamide-(2-hydroxyeth-1-yl)ammonium salt]: in series [1], the “herbicidal activity, pre-emergence” value was “very good herbicidal activity”. In addition, in [2], the “herbicidal activity, post-emergence” value is reported as “very good herbicidal activity”.
